Assay type in all cases: binding
For data set [1], the system named is HypNA-pPNA 16-mer. As to the kind of experiment: Melting curve analysis, mismatch discrimination in moderate salt, PNA/DNA. The note with it: for Tm, ° C. PNA/DNA: 20 millimolar Tris-HCl, pH 7.5, 150 millimolar NaCl, 10 millimolar MgCl2, oligomers 1:1, * = Tms not reliable, complex probably unstable; for ΔTm PNA/DNA: 150 millimolar NaCl, relative to no mismatches. From the text: (§1) The sequence of the […] oligomer was: Th-Gp-Gh-Tp-Ch-Tp-Ch-Ap-Ah-Gp-Th-Cp-Ah-Gp-Th-Gp-dT, where the subscript h denotes a “HypNA” monomeric unit and the subscript p denotes a “pPNA” monomeric unit. […] For performing DNA-DNA control hybridizations, a DNA oligomer with a sequence identical to that of the […] oligomer, […]) was also synthesized. To perform the melting curve analysis, the DNA oligomers and […] oligomers were mixed at a 1:1 in a volume of 400 microliters. For nucleic acid hybridization controls, DNA oligomers and complementary (or partially complementary) DNA oligomers, were mixed at a 1:1 ratio in a volume of 400 microliters. The hybridization solutions contained 20 millimolar Tris-HCl, pH 7.5, 150 millimolar NaCl, and 10 millimolar MgCl2. The mixtures of DNA oligomers or DNA oligomers with […] oligomers were then incubated at 90 degrees C. for 3 minutes and allowed to cool gradually to room temperature overnight. […] Changes in the absorbance at 260 nanometers were recorded, and a Tm was calculated for each combination of oligomers. In some cases, there was no discernible Tm, which we interpret to be the result of the inability of particular oligomer pairs to form stable complexes.

Data set [2] concerns DNA oligomer with a sequence identical to that of the HypNA-pPNA oligomer. As to the kind of experiment: Melting curve analysis, mismatch discrimination in high salt, DNA/DNA control. The note with it: for Tm, ° C. DNA/DNA: 20 millimolar Tris-HCl, pH 7.5, 500 millimolar NaCl, 10 millimolar MgCl2, oligomers 1:1; for ΔTm DNA/DNA: 500 millimolar NaCl, relative to no mismatches. From the text:
(§2) The sequence of the […] oligomer was: Th-Gp-Gh-Tp-Ch-Tp-Ch-Ap-Ah-Gp-Th-Cp-Ah-Gp-Th-Gp-. […] For performing DNA-DNA control hybridizations, a DNA oligomer with a sequence identical to that of the […] oligomer was also synthesized. To perform the melting curve analysis, the DNA oligomers and […] oligomers were mixed at a 1:1 ratio in a volume of 400 microliters. For nucleic acid hybridization controls, DNA oligomers and complementary (or nearly complementary) DNA oligomers, were mixed at a 1:1 ratio in a volume of 400 microliters. The hybridization solutions contained 20 millimolar Tris-HCl, pH 7.5, 500 millimolar NaCl, and 10 millimolar MgCl2. The mixtures of DNA oligomers or DNA oligomers with […] oligomers were then incubated at 90 degrees C. for 3 minutes and allowed to cool gradually to room temperature overnight. […] Changes in the absorbance at 260 nanometers were recorded, and a Tm was calculated for each combination of oligomers. In some cases, there was no discernible Tm, which we interpret to be the result of the inability of particular oligomer pairs to form stable complexes.

For data set [3], the system named is HypNA-pPNA 16-mer. Briefly: Melting curve analysis, mismatch discrimination in high salt, PNA/DNA. The note with it: for Tm, ° C. PNA/DNA: 20 millimolar Tris-HCl, pH 7.5, 500 millimolar NaCl, 10 millimolar MgCl2, oligomers 1:1; for ΔTm PNA/DNA: 500 millimolar NaCl, relative to no mismatches.
Excerpt: as §2

For data set [4], the system named is DNA oligomer 5′-TGGTCTCACGTCAGTG-3′ (SEQ ID NO: 19). Briefly: Melting curve analysis, mismatch discrimination in moderate salt, DNA/DNA control. The note with it: for Tm, ° C. DNA/DNA: 20 millimolar Tris-HCl, pH 7.5, 150 millimolar NaCl, 10 millimolar MgCl2, oligomers 1:1; for ΔTm DNA/DNA: 150 millimolar NaCl, relative to no mismatches.
Excerpt: as §1

Data set [5] has as its system Oligonucleotide probes labeled with ^32P (DNA probe). Briefly: Hybridization of support-bound polyacrylamide-oligomer co-polymers to labeled oligonucleotide probes; effect of single-base mismatches. The note with it: 0.1 M NaCl, 10 mM sodium phosphate (pH 7), 5 mM EDTA, 10 mM MgCl2, 0.1% sodium dodecyl sulfate.

Values joined by “and” are separate entries in the source; they are usually repeats but may differ in a detail not shown here. Identical values can stand only once.

As to “5′-CAC TGA CTT GAG ACC A -3′ (SEQ ID NO: 20) [No mismatches]”, the “Tm, ° C. PNA/DNA” value in data set [1] is 57.9 °C and 58.2 °C; in data set [3], 59.1 °C and 58.0 °C. Also, the “Tm, ° C. DNA/DNA” value in data set [2] was 63.8 °C and 64.5 °C and 64.0 °C; in data set [4], 61.7 °C and 61.6 °C.

Consider “20 (DNA CTGCAAAGCACACCATGA; DNA, backbone not given here) [Oligomer 20]”, for which, in data set [5], the “Td (degr. C.)” value is given as 41 degr. C and the “Tm (degr. C.)” value amounted to 40 degr. C.

“5′-CAC GGA GTT GAG ACC A -3′ (SEQ ID NO: 32) (DNA CACGGAGTTGAGACCA; DNA, backbone not given here) [Mismatch M, DNA oligomer with mismatches to the HypNA-pPNA 16-mer]”: in data set [4], the “Tm, ° C. DNA/DNA” value was 50.2 °C and 45.2 °C; the “ΔTm DNA/DNA” value is 11.5 °C and 16.4 °C.

Regarding “5′-CAC TGA CTG GAG ACC A -3′ (SEQ ID NO: 27) (DNA CACTGACTGGAGACCA; DNA, backbone not given here) [Mismatch G, DNA oligomer with mismatch to the HypNA-pPNA 16-mer]”, in data set [2], the “Tm, ° C. DNA/DNA” value is 56.2 °C and 56.1 °C; the “ΔTm DNA/DNA” value was 8 °C. Besides, in data set [3], the “Tm, ° C. PNA/DNA” value is recorded as “No Tm”. Also, in data set [4], the “Tm, ° C. DNA/DNA” value is 52.2 °C and 52.6 °C; the “ΔTm DNA/DNA” value was 9.4 °C and 9.1 °C.

Regarding “5′-CAC TGA ATT GAG ACC A -3′ (SEQ ID NO: 30) (DNA CACTGAATTGAGACCA; DNA, backbone not given here) [Mismatch J, DNA oligomer with mismatch to the HypNA-pPNA 16-mer]”, in data set [4], the “Tm, ° C. DNA/DNA” value is 52.3 °C and 52.5 °C; the “ΔTm DNA/DNA” value was 9.3 °C and 9.2 °C.

Consider “5′-CAC TGA CTT GAG ACG A -3′ (SEQ ID NO: 24) (DNA CACTGACTTGAGACGA; DNA, backbone not given here) [Mismatch D, DNA oligomer with mismatch to the HypNA-pPNA 16-mer]”, for which, in data set [2], the “Tm, ° C. DNA/DNA” value is 60.8 °C and 62.7 °C. Besides, in data set [3], the “Tm, ° C. PNA/DNA” value was 54.3 °C and 54.9 °C; the “ΔTm PNA/DNA” value is 4 °C and 3 °C.

Regarding “19 (DNA CTGCAAAGGACACCATGA; DNA, backbone not given here) [Oligomer 19]”, in data set [5], the “Td (degr. C.)” value came out at 55 degr. C and the “Tm (degr. C.)” value is 54 degr. C.

Consider “5′-CAC TGA CAT GAG ACC A -3′ (SEQ ID NO: 28) (DNA CACTGACATGAGACCA; DNA, backbone not given here) [Mismatch H, DNA oligomer with mismatch to the HypNA-pPNA 16-mer]”, for which, in data set [1], the “Tm, ° C. PNA/DNA” value is 52.7 °C and 51.8 °C; the “ΔTm PNA/DNA” value was 5.5 °C and 6.1 °C. In data set [2], the “Tm, ° C. DNA/DNA” value is 55.1 °C and 53.3 °C; the “ΔTm DNA/DNA” value was 9 °C and 11 °C. In addition, in data set [3], the “Tm, ° C. PNA/DNA” value is 41.3 °C and 43.5 °C; the “ΔTm PNA/DNA” value was 17 °C and 15 °C. For the same substance, in data set [4], the “Tm, ° C. DNA/DNA” value was 50.0 °C and 53.4 °C; the “ΔTm DNA/DNA” value was 11.6 °C and 8.3 °C.

In the case of “5′-CAC TGA CGT GAG ACC A -3′ (SEQ ID NO: 26) (DNA CACTGACGTGAGACCA; DNA, backbone not given here) [Mismatch F, DNA oligomer with mismatch to the HypNA-pPNA 16-mer]”, in data set [1], the “Tm, ° C. PNA/DNA” value worked out at 43.7 °C; the “ΔTm PNA/DNA” value is 14.5 °C and 14.2 °C. In data set [2], the “Tm, ° C. DNA/DNA” value was 53.9 °C and 55.3 °C; the “ΔTm DNA/DNA” value was 10 °C and 9 °C. The “Tm, ° C. PNA/DNA” value in data set [3] is reported as “No Tm”. Besides, in data set [4], the “Tm, ° C. DNA/DNA” value is 52.6 °C and 55.6 °C; the “ΔTm DNA/DNA” value is 9 °C and 6.1 °C.

In the case of “5′-CGG TGA CTT GAG ACC A -3′ (SEQ ID NO: 25) (DNA CGGTGACTTGAGACCA; DNA, backbone not given here) [Mismatch E, DNA oligomer with mismatches to the HypNA-pPNA 16-mer]”, in data set [2], the “Tm, ° C. DNA/DNA” value was 56.5 °C and 56.8 °C; the “ΔTm DNA/DNA” value came out at 7 °C. Further, in data set [3], the “Tm, ° C. PNA/DNA” value is “No Tm”. Besides, in data set [4], the “Tm, ° C. DNA/DNA” value was 52.7 °C and 55.1 °C; the “ΔTm DNA/DNA” value is 8.9 °C and 6.6 °C.

Regarding “5′-CAC TGA GTT GGG ACC A -3′ (SEQ ID NO: 31) (DNA CACTGAGTTGGGACCA; DNA, backbone not given here) [Mismatch L, DNA oligomer with mismatches to the HypNA-pPNA 16-mer]”, the “ΔTm PNA/DNA” value in data set [1] is 24.3 °C. Further, in data set [4], the “Tm, ° C. DNA/DNA” value was 47.4 °C and 50.0 °C; the “ΔTm DNA/DNA” value was 14.2 °C and 11.7 °C.

In the case of “5′-CAC TGA GTT CAG ACC A -3′ (SEQ ID NO: 29) (DNA CACTGAGTTCAGACCA; DNA, backbone not given here) [Mismatch K, DNA oligomer with mismatches to the HypNA-pPNA 16-mer]”, in data set [1], the “ΔTm PNA/DNA” value amounted to 7 °C. In addition, in data set [4], the “Tm, ° C. DNA/DNA” value is 33.3 °C and 36.2 °C; the “ΔTm DNA/DNA” value was 28.3 °C and 25.5 °C.

In the case of “5′-CAC TGA CTT GAG TCC A -3′ (SEQ ID NO: 23) (DNA CACTGACTTGAGTCCA; DNA, backbone not given here) [Mismatch C, DNA oligomer with mismatch to the HypNA-pPNA 16-mer]”, in data set [1], the “Tm, ° C. PNA/DNA” value was 48.3 °C and 49.2 °C; the “ΔTm PNA/DNA” value is 9.9 °C and 8.7 °C. In data set [4], the “Tm, ° C. DNA/DNA” value was 51.6 °C and 53.8 °C; the “ΔTm DNA/DNA” value was 10 °C and 7.9 °C.

Consider “5′-CAC TGA GTG GAG ACC A -3′ (SEQ ID NO: 22) (DNA CACTGAGTGGAGACCA; DNA, backbone not given here) [Mismatch B, DNA oligomer with mismatches to the HypNA-pPNA 16-mer]”, for which, in data set [3], the “Tm, ° C. PNA/DNA” value was “No Tm”. Besides, in data set [4], the “Tm, ° C. DNA/DNA” value stood at 42.6 °C; the “ΔTm DNA/DNA” value was 19 °C and 18.9 °C.

For “5′-CAC TGA GTT GAG ACC A -3′ (SEQ ID NO: 21) [Mismatch A]”, the “Tm, ° C. PNA/DNA” value in data set [1] was 45.1 °C and 45.4 °C; in data set [3], 41.4 °C and 41.1 °C. In addition, the “ΔTm PNA/DNA” value was 13.1 °C and 12.5 °C in data set [1]; 17 °C in data set [3]. Also, the “ΔTm DNA/DNA” value turned out to be 7 °C in data set [2] and 9.9 °C in data set [4]. Besides, in data set [4], the “Tm, ° C. DNA/DNA” value is 51.7 °C and 51.8 °C.

(Values after patent US6962906B2, “Oligonucleotide analogues, methods of synthesis and methods of use” (Active Motif, priority 2000, dated 2005).)
